# Source: patent US11021457B2, “Class of isoindolone-imide ring-1,3-dione-2-ene compounds, composition and use thereof” (WIGEN BIOMEDICINE TECHNOLOGY (SHANGHAI) CO., LTD., priority 2017, dated 2021)
# pIC50: −log10 of the molar value.
# Tested on: A549
# Test: Inhibition of tumor cell proliferation, CellTiter-Glo, A549
# Format: cell-based
# Details: Homo sapiens, A549; compound concentration 50 μM, 72 hours; read-out: Inhibitory activity against proliferation (cell survival rate) A549
# Procedure, shortened: (§1)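 Activity is graded from survival at 50 μM: + for 60 to under 90%, ++ for over 30 to 60%, +++ for 30% or less. Survival was measured luminescently (CellTiter-Glo) 72 h after dosing, relative to untreated and blank wells; 2000-10000 cells/well, 37° C, 5% CO2.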
row,Compound,cell survival rate (% of control) at 50 µM
1,CCOC(=O)C1C(=O)C(=CNc2cccc3c2CN(C2CCC(=O)NC2=O)C3=O)C(=O)CC1c1cccc2[nH]ccc12 (stereo not drawn) [Compound 25],60 to 90%
2,CCOC(=O)C1C(=O)C(=CNc2cccc3c2C(=O)N(C2CCC(=O)NC2=O)C3=O)C(=O)CC1c1cccc2[nH]ccc12 (stereo not drawn) [Compound 26],60 to 90%

# Same assay, conditions: compound concentration 50 μM, 72 hours
row,Compound,Inhibitory activity against proliferation (cell survival rate) A549
1,O=C1CCC(N2Cc3c(NC=C4C(=O)CC(c5ccc(F)cc5Br)CC4=O)cccc3C2=O)C(=O)N1 (stereo not drawn) [Compound 17],++ (30<survival rate (%)≤60)
2,O=C1CCC(N2Cc3c(NC=C4C(=O)CC(c5ccccc5Br)CC4=O)cccc3C2=O)C(=O)N1 (stereo not drawn) [Compound 18],+ (60≤survival rate (%)<90)
3,O=C1CCC(N2Cc3c(NC=C4C(=O)CC(c5ccc(F)cc5)CC4=O)cccc3C2=O)C(=O)N1 (stereo not drawn) [Compound 19],+ (60≤survival rate (%)<90)
4,Cc1ccc(C2CC(=O)C(=CNc3cccc4c3CN(C3CCC(=O)NC3=O)C4=O)C(=O)C2)c(Br)c1 (stereo not drawn) [Compound 20],++ (30<survival rate (%)≤60)

# Tested on: RPMI-8226
# Test: Inhibition of tumor cell proliferation, CellTiter-Glo, RPMI-8226
# Format: cell-based
# Details: Homo sapiens, RPMI-8226; compound concentration 50 μM, 72 hours; read-out: Inhibitory activity against proliferation (cell survival rate) RPMI-8226
# Procedure, shortened: as §1
row,Compound,cell survival rate (% of control) at 50 µM
1,CCOC(=O)C1C(=O)C(=CNc2cccc3c2CN(C2CCC(=O)NC2=O)C3=O)C(=O)CC1c1cccc2[nH]ccc12 (stereo not drawn) [Compound 25],60 to 90%
2,CCOC(=O)C1C(=O)C(=CNc2cccc3c2C(=O)N(C2CCC(=O)NC2=O)C3=O)C(=O)CC1c1cccc2[nH]ccc12 (stereo not drawn) [Compound 26],60 to 90%

# Same assay, conditions: compound concentration 50 μM, 72 hours
row,Compound,Inhibitory activity against proliferation (cell survival rate) RPMI-8226
1,O=C1CCC(N2Cc3c(NC=C4C(=O)CC(c5ccc(F)cc5Br)CC4=O)cccc3C2=O)C(=O)N1 (stereo not drawn) [Compound 17],+++ (survival rate (%)≤30)
2,O=C1CCC(N2Cc3c(NC=C4C(=O)CC(c5ccccc5Br)CC4=O)cccc3C2=O)C(=O)N1 (stereo not drawn) [Compound 18],+ (60≤survival rate (%)<90)
3,O=C1CCC(N2Cc3c(NC=C4C(=O)CC(c5ccc(F)cc5)CC4=O)cccc3C2=O)C(=O)N1 (stereo not drawn) [Compound 19],++ (30<survival rate (%)≤60)
4,Cc1ccc(C2CC(=O)C(=CNc3cccc4c3CN(C3CCC(=O)NC3=O)C4=O)C(=O)C2)c(Br)c1 (stereo not drawn) [Compound 20],+ (60≤survival rate (%)<90)

# Biological target: LC3B (Homo sapiens (Human), UniProt Q9GZQ8)
# Test: Fluorescence polarization experiment targeting LC3B (GST-LC3B with FITC-labeled peptide)
# Details: not given
row,Compound,pIC50
1,CCOC(=O)C1C(=O)C(=CNc2cccc3c2CN(C2CCC(=O)NC2=O)C3=O)C(=O)CC1c1cccc2[nH]ccc12 (stereo not drawn) [Compound 25],> 5.52
2,CCOC(=O)C1C(=O)C(=CNc2cccc3c2C(=O)N(C2CCC(=O)NC2=O)C3=O)C(=O)CC1c1cccc2[nH]ccc12 (stereo not drawn) [Compound 26],> 5.52

# Same assay, conditions: GST-LC3B 180 nM, FITC-labeled peptide 18 nM, 25° C.
row,Compound,pIC50
1,O=C1CCC(N2Cc3c(NC=C4C(=O)CC(c5ccc(F)cc5Br)CC4=O)cccc3C2=O)C(=O)N1 (stereo not drawn) [Compound 17],> 5.52
2,O=C1CCC(N2Cc3c(NC=C4C(=O)CC(c5ccccc5Br)CC4=O)cccc3C2=O)C(=O)N1 (stereo not drawn) [Compound 18],> 5.52
3,O=C1CCC(N2Cc3c(NC=C4C(=O)CC(c5ccc(F)cc5)CC4=O)cccc3C2=O)C(=O)N1 (stereo not drawn) [Compound 19],> 5.52
4,Cc1ccc(C2CC(=O)C(=CNc3cccc4c3CN(C3CCC(=O)NC3=O)C4=O)C(=O)C2)c(Br)c1 (stereo not drawn) [Compound 20],> 5.52

# Tested on: SU-DHL6
# Test: Inhibition of tumor cell proliferation, CellTiter-Glo, SU-DHL6
# Format: cell-based
# Details: Homo sapiens, SU-DHL-6; compound concentration 50 μM, 72 hours; read-out: Inhibitory activity against proliferation (cell survival rate) SU-DHL6
# Procedure, shortened: as §1
row,Compound,cell survival rate (% of control) at 50 µM
1,CCOC(=O)C1C(=O)C(=CNc2cccc3c2CN(C2CCC(=O)NC2=O)C3=O)C(=O)CC1c1cccc2[nH]ccc12 (stereo not drawn) [Compound 25],60 to 90%
2,CCOC(=O)C1C(=O)C(=CNc2cccc3c2C(=O)N(C2CCC(=O)NC2=O)C3=O)C(=O)CC1c1cccc2[nH]ccc12 (stereo not drawn) [Compound 26],60 to 90%

# Same assay, conditions: compound concentration 50 μM, 72 hours
row,Compound,Inhibitory activity against proliferation (cell survival rate) SU-DHL6
1,O=C1CCC(N2Cc3c(NC=C4C(=O)CC(c5ccc(F)cc5Br)CC4=O)cccc3C2=O)C(=O)N1 (stereo not drawn) [Compound 17],+ (60≤survival rate (%)<90)
2,O=C1CCC(N2Cc3c(NC=C4C(=O)CC(c5ccccc5Br)CC4=O)cccc3C2=O)C(=O)N1 (stereo not drawn) [Compound 18],++ (30<survival rate (%)≤60)
3,O=C1CCC(N2Cc3c(NC=C4C(=O)CC(c5ccc(F)cc5)CC4=O)cccc3C2=O)C(=O)N1 (stereo not drawn) [Compound 19],+ (60≤survival rate (%)<90)
4,Cc1ccc(C2CC(=O)C(=CNc3cccc4c3CN(C3CCC(=O)NC3=O)C4=O)C(=O)C2)c(Br)c1 (stereo not drawn) [Compound 20],++ (30<survival rate (%)≤60)

# Tested on: K562
# Test: Inhibition of tumor cell proliferation, CellTiter-Glo, K562
# Format: cell-based
# Details: Homo sapiens, K562; compound concentration 50 μM, 72 hours; read-out: Inhibitory activity against proliferation (cell survival rate) K562
# Procedure, shortened: as §1
row,Compound,cell survival rate (%) at 50 µM
1,CCOC(=O)C1C(=O)C(=CNc2cccc3c2CN(C2CCC(=O)NC2=O)C3=O)C(=O)CC1c1cccc2[nH]ccc12 (stereo not drawn) [Compound 25],60 to 90%
2,CCOC(=O)C1C(=O)C(=CNc2cccc3c2C(=O)N(C2CCC(=O)NC2=O)C3=O)C(=O)CC1c1cccc2[nH]ccc12 (stereo not drawn) [Compound 26],60 to 90%

# Same assay, conditions: compound concentration 50 μM, 72 hours
row,Compound,Inhibitory activity against proliferation (cell survival rate) K562
1,O=C1CCC(N2Cc3c(NC=C4C(=O)CC(c5ccc(F)cc5Br)CC4=O)cccc3C2=O)C(=O)N1 (stereo not drawn) [Compound 17],+ (60≤survival rate (%)<90)
2,O=C1CCC(N2Cc3c(NC=C4C(=O)CC(c5ccccc5Br)CC4=O)cccc3C2=O)C(=O)N1 (stereo not drawn) [Compound 18],++ (30<survival rate (%)≤60)
3,O=C1CCC(N2Cc3c(NC=C4C(=O)CC(c5ccc(F)cc5)CC4=O)cccc3C2=O)C(=O)N1 (stereo not drawn) [Compound 19],++ (30<survival rate (%)≤60)
4,Cc1ccc(C2CC(=O)C(=CNc3cccc4c3CN(C3CCC(=O)NC3=O)C4=O)C(=O)C2)c(Br)c1 (stereo not drawn) [Compound 20],++ (30<survival rate (%)≤60)

# Tested on: BxPC-3
# Test: Inhibition of tumor cell proliferation, CellTiter-Glo, BxPC-3
# Format: cell-based
# Details: Homo sapiens, BXPC-3; compound concentration 50 μM, 72 hours; read-out: Inhibitory activity against proliferation (cell survival rate) BxPC-3
# Procedure, shortened: as §1
row,Compound,cell survival rate (%) at 50 µM
1,CCOC(=O)C1C(=O)C(=CNc2cccc3c2CN(C2CCC(=O)NC2=O)C3=O)C(=O)CC1c1cccc2[nH]ccc12 (stereo not drawn) [Compound 25],60 to 90%
2,CCOC(=O)C1C(=O)C(=CNc2cccc3c2C(=O)N(C2CCC(=O)NC2=O)C3=O)C(=O)CC1c1cccc2[nH]ccc12 (stereo not drawn) [Compound 26],60 to 90%

# Same assay, conditions: compound concentration 50 μM, 72 hours
row,Compound,Inhibitory activity against proliferation (cell survival rate) BxPC-3
1,O=C1CCC(N2Cc3c(NC=C4C(=O)CC(c5ccc(F)cc5Br)CC4=O)cccc3C2=O)C(=O)N1 (stereo not drawn) [Compound 17],+ (60≤survival rate (%)<90)
2,O=C1CCC(N2Cc3c(NC=C4C(=O)CC(c5ccccc5Br)CC4=O)cccc3C2=O)C(=O)N1 (stereo not drawn) [Compound 18],+ (60≤survival rate (%)<90)
3,O=C1CCC(N2Cc3c(NC=C4C(=O)CC(c5ccc(F)cc5)CC4=O)cccc3C2=O)C(=O)N1 (stereo not drawn) [Compound 19],++ (30<survival rate (%)≤60)
4,Cc1ccc(C2CC(=O)C(=CNc3cccc4c3CN(C3CCC(=O)NC3=O)C4=O)C(=O)C2)c(Br)c1 (stereo not drawn) [Compound 20],+ (60≤survival rate (%)<90)

# Tested on: MDA-MB-453
# Test: Inhibition of tumor cell proliferation, CellTiter-Glo, MDA-MB-453
# Format: cell-based
# Details: Homo sapiens, MDA-MB-453; compound concentration 50 μM, 72 hours; read-out: Inhibitory activity against proliferation (cell survival rate) MDA-MB-453
# Procedure, shortened: as §1
row,Compound,cell survival rate (%) at 50 µM
1,CCOC(=O)C1C(=O)C(=CNc2cccc3c2CN(C2CCC(=O)NC2=O)C3=O)C(=O)CC1c1cccc2[nH]ccc12 (stereo not drawn) [Compound 25],60 to 90%
2,CCOC(=O)C1C(=O)C(=CNc2cccc3c2C(=O)N(C2CCC(=O)NC2=O)C3=O)C(=O)CC1c1cccc2[nH]ccc12 (stereo not drawn) [Compound 26],60 to 90%

# Same assay, conditions: compound concentration 50 μM, 72 hours
row,Compound,Inhibitory activity against proliferation (cell survival rate) MDA-MB-453
1,O=C1CCC(N2Cc3c(NC=C4C(=O)CC(c5ccc(F)cc5Br)CC4=O)cccc3C2=O)C(=O)N1 (stereo not drawn) [Compound 17],+ (60≤survival rate (%)<90)
2,O=C1CCC(N2Cc3c(NC=C4C(=O)CC(c5ccccc5Br)CC4=O)cccc3C2=O)C(=O)N1 (stereo not drawn) [Compound 18],+ (60≤survival rate (%)<90)
3,O=C1CCC(N2Cc3c(NC=C4C(=O)CC(c5ccc(F)cc5)CC4=O)cccc3C2=O)C(=O)N1 (stereo not drawn) [Compound 19],++ (30<survival rate (%)≤60)
4,Cc1ccc(C2CC(=O)C(=CNc3cccc4c3CN(C3CCC(=O)NC3=O)C4=O)C(=O)C2)c(Br)c1 (stereo not drawn) [Compound 20],+ (60≤survival rate (%)<90)
